Laboratory results reported in PubChem BioAssay AID206 (DTP/NCI, 2004).
Results filed as inconclusive are left out.

System: nude mice, HT29 intrarenal xenograft, tumor weight T/C
Assay: NCI In Vivo Anticancer Drug Screen. Data for tumor model HT29;CX-1 Human Adenocarcinoma (MER+) (intrarenal inoculation) in NU/NU Swiss (nude) mice
Conditions: endpoint: mean tumor weight change, higher = larger tumour
Procedure, shortened: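 Endpoint measured as tumor size or survival; ratio reported is treated group over vehicle controls.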

[1] = dose: 300.0 mg/kg/injection, schedule: Q04DX004 (sc), vehicle: Klucel (hydroxypropylcellulose) (HPC)
[2] = dose: 600.0 mg/kg/injection, schedule: Q04DX004 (sc), vehicle: Klucel (hydroxypropylcellulose) (HPC)
[3] = dose: 4.0 mg/kg/injection, schedule: Q04DX004 (sc), vehicle: saline
[4] = dose: 37.5 mg/kg/injection, schedule: Q04DX004 (sc), vehicle: saline with Tween-80
[5] = dose: 150.0 mg/kg/injection, schedule: Q04DX004 (sc), vehicle: saline with Tween-80
[6] = dose: 300.0 mg/kg/injection, schedule: Q04DX004 (sc), vehicle: saline with Tween-80
[7] = dose: 400.0 mg/kg/injection, schedule: Q04DX004 (sc), vehicle: saline with Tween-80
[8] = dose: 1200.0 mg/kg/injection, schedule: Q04DX004 (sc), vehicle: Klucel (hydroxypropylcellulose) (HPC)
[9] = dose: 200.0 mg/kg/injection, schedule: Q04DX004 (sc), vehicle: Klucel (hydroxypropylcellulose) (HPC)
[10] = dose: 400.0 mg/kg/injection, schedule: Q04DX004 (sc), vehicle: Klucel (hydroxypropylcellulose) (HPC)

Compound: CC(C)CC(=O)NC(C(=O)NC(C(=O)NC(CC(C)C)C(O)CC(=O)NC(C)C(=O)NC(CC(C)C)C(O)CC(=O)O)C(C)C)C(C)C (centres undefined)
- T/C (dose: 150.0 mg/kg/injection, schedule: Q04DX004 (sc), vehicle: Klucel (hydroxypropylcellulose) (HPC)): 102 % of control
- T/C [1]: 87 % of control
- T/C [2]: 69 % of control

Compound: Cc1c(N)nc([C@H](CC(N)=O)NC[C@H](N)C(N)=O)nc1C(=O)N[C@H](C(=O)N[C@H](C)[C@@H](O)CC(=O)N[C@H](C(=O)NC(O[C@@H]1O[C@@H](C)[C@@H](N)[C@@H](O)[C@H]1O)C(O)c1nc(-c2nc(C(=O)NCCCCN)cs2)cs1)[C@@H](C)O)[C@@H](O[C@@H]1O[C@@H](CO)[C@@H](O)[C@H](O)[C@@H]1O[C@H]1O[C@H](CO)[C@@H](O)[C@H](OC(N)=O)[C@@H]1O)c1c[nH]cn1 (some centres undefined)
- T/C [3]: 104 % of control
- T/C (dose: 8.0 mg/kg/injection, schedule: Q04DX004 (sc), vehicle: saline): 68 % of control
- T/C (dose: 16.0 mg/kg/injection, schedule: Q04DX004 (sc), vehicle: saline): 73 % of control
- T/C (dose: 32.0 mg/kg/injection, schedule: Q04DX004 (sc), vehicle: saline): 28 % of control

Compound: CCCCN(CCCC)C(Cl)=Nc1ccccc1
- T/C (dose: 100.0 mg/kg/injection, schedule: Q04DX004 (sc), vehicle: other): 103 % of control
- T/C (dose: 200.0 mg/kg/injection, schedule: Q04DX004 (sc), vehicle: other): 100 % of control
- T/C (dose: 400.0 mg/kg/injection, schedule: Q04DX004 (sc), vehicle: other): 96 % of control
- T/C (dose: 800.0 mg/kg/injection, schedule: Q04DX004 (sc), vehicle: other): 91 % of control

Compound: O=C(/C=C(\Cl)C(=O)NO)NO
- T/C (dose: 50.0 mg/kg/injection, schedule: Q04DX004 (sc), vehicle: saline): 102 % of control
- T/C (dose: 100.0 mg/kg/injection, schedule: Q04DX004 (sc), vehicle: saline): 172 % of control
- T/C (dose: 200.0 mg/kg/injection, schedule: Q04DX004 (sc), vehicle: saline): 86 % of control

Compound: CCCCCn1c(C)cc(/C=C\c2ccc3cc(C)ccc3[n+]2C)c1C
- T/C (dose: 1.0 mg/kg/injection, schedule: Q01DX010 (sc), vehicle: Klucel (hydroxypropylcellulose) (HPC)): 89 % of control
- T/C (dose: 2.0 mg/kg/injection, schedule: Q01DX010 (sc), vehicle: Klucel (hydroxypropylcellulose) (HPC)): 182 % of control
- T/C (dose: 4.0 mg/kg/injection, schedule: Q01DX010 (sc), vehicle: Klucel (hydroxypropylcellulose) (HPC)): 89 % of control

Compound: C1=CCOCOC1
- T/C [4]: 69 % of control
- T/C (dose: 75.0 mg/kg/injection, schedule: Q04DX004 (sc), vehicle: saline with Tween-80): 70 % of control
- T/C [5]: 68 % of control
- T/C [6]: 72 % of control

Compound: CC[N+](CC)(CC)CC
- T/C (dose: 3.0 mg/kg/injection, schedule: Q01DX010 (sc), vehicle: saline with Tween-80): 68 % of control
- T/C (dose: 6.0 mg/kg/injection, schedule: Q01DX010 (sc), vehicle: saline with Tween-80): 104 % of control

Compound: c1cc(OCC2CO2)ccc1OCC1CO1 (centres undefined)
- T/C (dose: 200.0 mg/kg/injection, schedule: Q04DX004 (sc), vehicle: saline with Tween-80): 79 % of control
- T/C [7]: 106 % of control

Compound: CC(=O)CC(=O)CCC(=O)O
- T/C (dose: 150.0 mg/kg/injection, schedule: Q04DX004 (sc), vehicle: saline): 111 % of control
- T/C (dose: 600.0 mg/kg/injection, schedule: Q04DX004 (sc), vehicle: saline): 113 % of control
- T/C (dose: 1200.0 mg/kg/injection, schedule: Q04DX004 (sc), vehicle: saline): 104 % of control

Compound: CCCCCC#CC1OC12CCCCC2 (centres undefined)
- T/C [5]: 74 % of control
- T/C [6]: 62 % of control
- T/C (dose: 600.0 mg/kg/injection, schedule: Q04DX004 (sc), vehicle: saline with Tween-80): 77 % of control
- T/C (dose: 1200.0 mg/kg/injection, schedule: Q04DX004 (sc), vehicle: saline with Tween-80): 100 % of control

Compound: COc1cccc2c1C(=O)c1c(O)c3c(c(O)c1C2=O)C[C@@](O)(/C(C)=N/NC(=O)c1cccc([N+](=O)[O-])c1)C[C@@H]3OC1CC(N)C(O)C(C)O1 (some centres undefined)
- T/C (dose: 8.0 mg/kg/injection, schedule: Q01DX010 (sc), vehicle: water): 16 % of control
- T/C (dose: 10.0 mg/kg/injection, schedule: Q04DX004 (sc), vehicle: water): 48 % of control
- T/C (dose: 16.0 mg/kg/injection, schedule: Q01DX010 (sc), vehicle: water): 61 % of control
- T/C (dose: 20.0 mg/kg/injection, schedule: Q04DX004 (sc), vehicle: water): 70 % of control
- T/C (dose: 40.0 mg/kg/injection, schedule: Q04DX004 (sc), vehicle: water): 47 % of control
- T/C (dose: 80.0 mg/kg/injection, schedule: Q04DX004 (sc), vehicle: water): 106 % of control

Compound: C[C@]12CCC(=O)C=C1CC[C@@H]1[C@@H]2C(=O)C[C@@]2(C)[C@H]1CC[C@]2(O)C(=O)CO
- T/C [1]: 55 % of control
- T/C [2]: 42 % of control
- T/C [8]: 42 % of control

Compound: COC(=O)C[C@](O)(CCCC(C)(C)O)C(=O)O[C@@H]1C(OC)=C[C@]23CCCN2CCc2cc4c(cc2[C@H]13)OCO4
- T/C (dose: 0.5 mg/kg/injection, schedule: Q01DX010 (sc), vehicle: saline): 41 % of control

Compound: Cc1cn(C2CC(O)C(CO)O2)c(=O)[nH]c1=O (centres undefined)
- T/C (dose: 400.0 mg/kg/injection, schedule: Q04DX004 (sc), vehicle: saline): 113 % of control
- T/C (dose: 800.0 mg/kg/injection, schedule: Q04DX004 (sc), vehicle: saline): 94 % of control
- T/C (dose: 1600.0 mg/kg/injection, schedule: Q04DX004 (sc), vehicle: saline): 102 % of control
- T/C (dose: 3200.0 mg/kg/injection, schedule: Q04DX004 (sc), vehicle: saline): 81 % of control

Compound: COC1/C=C/C=C(/C)Cc2cc(O)c(Cl)c(c2)N(C)C(=O)CC(OC(=O)C(C)C)C2(C)OC2C(C)C2CC1(O)NC(=O)O2 (centres undefined)
- T/C (dose: 0.5 mg/kg/injection, schedule: Q04DX004 (sc), vehicle: saline + alcohol): 123 % of control
- T/C (dose: 1.0 mg/kg/injection, schedule: Q04DX004 (sc), vehicle: saline + alcohol): 78 % of control
- T/C (dose: 2.0 mg/kg/injection, schedule: Q04DX004 (sc), vehicle: saline + alcohol): 78 % of control
- T/C (dose: 4.0 mg/kg/injection, schedule: Q04DX004 (sc), vehicle: saline + alcohol): 65 % of control

Compound: CSc1nc(=O)[nH]nc1SCc1ccccc1
- T/C [9]: 76 % of control
- T/C [10]: 56 % of control
- T/C (dose: 800.0 mg/kg/injection, schedule: Q04DX004 (sc), vehicle: Klucel (hydroxypropylcellulose) (HPC)): 90 % of control

Compound: Cc1ncc([N+](=O)[O-])n1CCSC(N)=O
- T/C [7]: 112 % of control
- T/C (dose: 800.0 mg/kg/injection, schedule: Q04DX004 (sc), vehicle: saline with Tween-80): 76 % of control
- T/C (dose: 1600.0 mg/kg/injection, schedule: Q04DX004 (sc), vehicle: saline with Tween-80): 111 % of control

Compound: CC1=CC2C(O)(CC(CO)=CC3C4C(C)(C)C4(OC(=O)c4ccccc4)C(OC(=O)c4ccccc4)C(C)C32O)C1=O (centres undefined)
- T/C (dose: 5.0 mg/kg/injection, schedule: Q04DX004 (sc), vehicle: saline with Tween-80): 43 % of control

Compound: CCCCCCCCCCCCCC#CC(=O)O
- T/C [4]: 117 % of control
- T/C [6]: 104 % of control

Compound: Cc1ncc(CNC(=O)N(CCCl)N=O)c(N)n1
- T/C (dose: 9.38 mg/kg/injection, schedule: Q04DX004 (sc), vehicle: saline): 55 % of control
- T/C (dose: 18.75 mg/kg/injection, schedule: Q04DX004 (sc), vehicle: saline): 39 % of control

Compound: O=C1NC(=O)NC(C(=O)O)N1
- T/C (dose: 50.0 mg/kg/injection, schedule: Q04DX004 (sc), vehicle: Klucel (hydroxypropylcellulose) (HPC)): 101 % of control
- T/C (dose: 100.0 mg/kg/injection, schedule: Q04DX004 (sc), vehicle: Klucel (hydroxypropylcellulose) (HPC)): 67 % of control
- T/C [9]: 114 % of control
- T/C [1]: 108 % of control
- T/C [10]: 91 % of control
- T/C [2]: 95 % of control
- T/C [8]: 58 % of control

Compound: C/C=C(\C)c1cc(=O)c2c(C)cc3c(c2o1)C(=O)c1c(O)c(C2CC(C)(N(C)C)C(O)C(C)O2)cc(C2CC(N(C)C)C(O)C(C)O2)c1C3=O (centres undefined)
- T/C (dose: 0.5 mg/kg/injection, schedule: Q04DX004 (sc), vehicle: saline): 78 % of control
- T/C (dose: 2.0 mg/kg/injection, schedule: Q04DX004 (sc), vehicle: saline): 112 % of control
- T/C [3]: 82 % of control
- T/C (dose: 4.0 mg/kg/injection, schedule: Q04DX004 (sc), vehicle: suspension in saline): 104 % of control
- T/C (dose: 8.0 mg/kg/injection, schedule: Q04DX004 (sc), vehicle: suspension in saline): 64 % of control
- T/C (dose: 16.0 mg/kg/injection, schedule: Q04DX004 (sc), vehicle: suspension in saline): 90 % of control
